Measured values published in PMC7467243, “Response to and recovery from treatment in human liver-mimetic clinostat spheroids: a model for assessing repeated-dose drug toxicity” (Toxicology Research, 2020).

Experiments:
[1] = cited from earlier work; for Biological half-life (h): in vivo
[2] = cited from earlier work
HepG2/C3A spheroids = test system: HepG2/C3A spheroids; design: method as in earlier work; conditions: cited from earlier work
[3] = cited from earlier work; remark: listed apart in the source
HepG2–C3A spheroids = test system: HepG2–C3A spheroids
Experimental: Three hundred 21-day old spheroids (corresponding to ~25 million cells or 3.5 mg protein) were gently pipetted (using a cut-tip) into each 10 ml bioreactor before treatment to provide ample material for analysis. To initiate drug treatment, the bioreactor rotation was stopped for 30 s to allow the spheroids to settle to the bottom of the bioreactor. […] Each narrow range experiment was carried out in duplicate and ATP was measured in technical triplicates for each sample. […] Data were normalized to the vehicle-treated control. Error bars in the figures show standard deviation.
Cell viability was measured based on their ability to produce ATP [37]. […] The cells were then lysed with 100 μl of lysis buffer (CellTiter-Glo luminescent cell viability assay, Promega, Fitchburg, WI, Cat. no. G7571) and shaken in the dark for 20 min. Before the luminescence was measured in a FluoStar OPTIMA (BMG Labtech, Ortenberg, Germany) using the following parameters: one kinetic window, 10 measurement cycles with 0.3 s of measurement interval time, 2-s delay per measurement, additional 0.5-s delay per position change (repeated twice for each measured plate). Replicates were performed as described under the ‘Drug treatment’ Section. The data were normalized with reference to a standard curve for ATP and to the untreated control.

[4] = design: method as in PMID 22407198, PMID 12889529; conditions: therapeutic dose 4 g/day; cited from earlier work

## [H]/N=C(/N)N/C(=N/[H])NCCc1ccccc1 [Phenformin]
[1]
  half-life: 7 h
  Biological half-life (h): 4–13 h

## O=C(O)Cc1ccccc1Nc1c(Cl)cccc1Cl [Diclofenac]
[2]
  effectiveness as an anti-inflammatory agent compared with other non-steroidal anti-inflammatory drugs: 3-1000 ×
[1]
  Biological half-life (h): 1–2 h

## CCCC(CCC)C(=O)O [VPA, valproic acid]
HepG2/C3A spheroids
  acute toxicity threshold: 20 mg VPA per mg protein
  chronic toxicity threshold: 4 mg VPA per mg protein
[1]
  Biological half-life (h): 10–20 h
[3]
  Toxic dose, μg/ml in blood: 40 to 100 µg/mL

## CN(C)C(=N)N=C(N)N [Metformin]
HepG2–C3A spheroids; 5 mg/mg (highest dose), glucose medium
  reduction in ATP production: 70%

## CC(=O)Nc1ccc(O)cc1 [Paracetamol]
[1]
  Biological half-life (h): 2–4 h
[3]
  Toxic dose, μg/ml in blood: 100 to 150 µg/mL
HepG2–C3A spheroids; four treatments at 48-h intervals killed the spheroids, relative to 20 mg paracetamol per mg protein
  chronically lethal dose: Half of this dose
HepG2–C3A spheroids; glucose medium
  acutely lethal dose: 20 mg paracetamol per mg protein
[4]
  blood concentration: 10000 to 25000 ng/mL
